{"source": "patent US5124315A", "about": "“Liquid pharmaceutical composition for nasal administration containing a polypeptide as active ingredient” (Phideatech S.R.L., priority 1991, dated 1992)", "conditions": "liquid nasal compositions, common storage conditions", "source_text": "The present inventors have accordingly conducted extensive researches for finding a suitable stabilizing agent."}
{"smiles": "N.N.O=C(O)C(O)C(O)C(=O)O", "note": "(stereo not shown) [ammonium tartrate]", "values": [{"measurement": "stabilizing activity on liquid compositions containing polypeptides", "value": "satisfactory stabilizing agent"}]}
